US5147876A, “2,6-di,2,4,6-, 2,5,6-tri and 2,4,5,6-tetra-substituted pyrimidines, their pharmaceutically acceptable salts, pharmaceutical compositions containing same and their use in the treatment of neurological diseases” (Mitsui Petrochemical Industries, Ltd., priority 1988, dated 1992)
Where “and” joins values, the source holds several entries; their conditions need not be identical. Identical values can stand only once. Counter-ions that a name gives are not always drawn.

Legend:
[1] = system: mice; assay: Acute toxicity on mice; assay type: in vivo; conditions: 24 hours after administration
Procedure: (§1) The acute toxicity of the compounds of the invention was examined by the following method.
(§2) Male ddy-strain 5-week old mice, 4-6- per group, were used as experimental animals. Each of the compounds was intraperitoneally (i.p.), and the toxicity of the compound was assessed 24 hours after the administration.

[2] = system: neuro-2a (mouse neuroblastoma cells); assay: Action on neuro-2a: proportion of cells containing outgrown neurites; assay type: cell-based; conditions: mean ± S.D.
Outline: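 Mouse neuro-2a cells at 1,000 cells/well in DMEM with 10% FCS were cultured one day at 37 °C, 5% CO2, then glutaraldehyde-fixed and methylene-blue-stained. The proportion of cells bearing a neurite at least twice the cell's long diameter was counted over >200 cells; up to 6 concentrations, triplicate runs.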

[3] = system: NS-20Y (mouse neuroblastoma cells); assay: Activity on NS-20Y cells: appearance of neurites; assay type: cell-based
Outline: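 Mouse neuroblastoma NS-20Y cells were grown in polyornithine-coated dishes in DMEM with 10 % FCS, 100 units/ml penicillin G sodium and 100 micrograms/ml streptomycin sulfate, at 37° C under 5 % carbon dioxide, and exposed to compound. Cells were fixed with 4 % glutaraldehyde, stained with 0.05 % methylene blue, and the fraction bearing neurites at least twice the cell's long diameter was counted microscopically.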

[4] = Acute toxicity on mice; assay type: in vivo; conditions: mouse, in vivo, ip, 24 hours after administration; read-out: Estimated LD50
Procedure: as §1, §2

SMILES | Number of cells having neurites with a length at least two times the diameter of each cell/total number of cells ([2]; 0.03 mM) | Number of cells having neurites with a length at least two times the diameter of each cell/total number of cells ([2]; 0.1 mM) | Number of cells having neurites with a length at least two times the diameter of each cell/total number of cells ([2]; 0.3 mM) | Number of cells in which neurites appeared/total number of cells ([3]; 48 hours, 0.1 mM) | Number of cells in which neurites appeared/total number of cells ([3]; 24 hours, 0.1 mM) | LD50 at 24 h [4] | also measured
COCC(=O)N(C)c1ccnc(N2CCC(c3ccccc3)CC2)n1.Cc1ccc(S(=O)(=O)O)cc1 [Compound 154-2] | 3.9 ± 0.6% | 8.9 ± 2.4% | – | – | – | – | Estimated LD50 [1]: 500-1000 mg/kg, i.p.
CN(C(=O)c1ccccc1)c1ccnc(N2CCC(c3ccccc3)CC2)n1 [Compound 169] | – | 34.1 ± 5.7% | 16.6 ± 5.2% | – | – | – | Estimated LD50 [1]: > 1000 mg/kg, i.p.
CN(C(=O)c1ccccc1)c1ccnc(N2CCC(c3ccccc3)CC2)n1 [Compound 170, 4-(N-methylbenzamino)-2-(4-phenylpiperidino)pyrimidine hydrochloride] | – | – | – | – | – | – | Estimated LD50 [1]: > 1000 mg/kg, i.p.; Number of cells having neurites with a length at least two times the diameter of each cell/total number of cells ([2]; 0.1 mM, hydrochloride): 33.5 ± 2.4%; Number of cells having neurites with a length at least two times the diameter of each cell/total number of cells ([2]; 0.3 mM, hydrochloride): 31.0 ± 4.6%
CN(C(=O)c1ccc(Cl)cc1Cl)c1ccnc(N2CCC(c3ccccc3)CC2)n1.Cc1ccc(S(=O)(=O)O)cc1 [Compound 171-11] | 5.9 ± 0.9% | 36.8 ± 7.1% and 22.1 ± 2.3% | – | 2/50 | – | – | Number of cells in which neurites appeared/total number of cells ([3]; 24 hours, 0.3 mM): 5/50; Estimated LD50 [1]: > 1000 mg/kg, i.p.; Number of cells having neurites with a length at least two times the diameter of each cell/total number of cells ([2]; 1 mM): 31.7 ± 5.9%
Cc1cc(N(C)C(=O)c2ccccc2)nc(N2CCC(c3ccccc3)CC2)n1 [Compound 400] | – | – | 11.4 ± 4.3% | 3/50 | 9/50 | 500 to 1000 mg/kg | Number of cells in which neurites appeared/total number of cells ([3]; 24 hours, 0.4 mM): 30/53; Number of cells in which neurites appeared/total number of cells ([3]; 48 hours, 0.4 mM): 3/48; Number of cells having neurites with a length at least two times the diameter of each cell/total number of cells ([2]; 1 mM): 16.0 ± 2.7%
Cc1cnc(N2CCC(c3ccccc3)CC2)nc1N(C)C(=O)c1ccccc1 [Compound 424] | 4.5 ± 1.4% | 7.6 ± 1.3% | – | – | – | > 1000 mg/kg | Number of cells in which neurites appeared/total number of cells ([3]; 24 hours, 0.4 mM): 16/50; Number of cells in which neurites appeared/total number of cells ([3]; 48 hours, 0.4 mM): 3/50
CN(C(=O)c1ccccc1)c1nccc(N2CCCCC2)n1 [Compound 604] | – | 18.7 ± 4.1% | 24.6 ± 2.9% | – | – | < 500 mg/kg | Number of cells in which neurites appeared/total number of cells ([3]; 24 hours, 0.02 mM): 6/50; Number of cells in which neurites appeared/total number of cells ([3]; 24 hours, 0.4 mM): 7/50; Number of cells in which neurites appeared/total number of cells ([3]; 48 hours, 0.02 mM): 2/50
CC1CCN(c2ccnc(N(C)C(=O)c3ccccc3)n2)CC1 [Compound 612] | 19.1 ± 3.0% | 19.4 ± 3.9% | 22.4 ± 2.4% | 2/50 | 2/50 | 500 to 1000 mg/kg | Number of cells having neurites with a length at least two times the diameter of each cell/total number of cells ([2]; 0.01 mM): 13.8 ± 1.5%
CN(C(=O)c1ccccc1)c1nccc(N2CCC(c3ccccc3)CC2)n1 [Compound 628] | 10.2 ± 1.3% | 13.4 ± 3.2% | 12.6 ± 3.2% | 3/50 | 9/50 | 500 to 1000 mg/kg | Number of cells having neurites with a length at least two times the diameter of each cell/total number of cells ([2]; 1 mM): 10.0 ± 3.9%
O=C(c1ccccc1)N(Cc1ccccc1)c1nccc(N2CCC(c3ccccc3)CC2)n1 [Compound 660] | 13.5 ± 1.3% | 9.1 ± 3.7% | – | 4/50 | 5/50 | 500 to 1000 mg/kg | –
CN(C(=O)c1ccco1)c1nccc(N2CCC(c3ccccc3)CC2)n1 [Compound 684] | 5.8 ± 2.0% | 16.4 ± 2.8% | – | – | 2.50 | 500 to 1000 mg/kg | Number of cells in which neurites appeared/total number of cells ([3]; 48 hours, 0.05 mM): 2/50; Number of cells having neurites with a length at least two times the diameter of each cell/total number of cells ([2]; 0.01 mM): 3.8 ± 0.5%
COC(=O)c1cnc(NC(C)C)nc1C.O=C(O)/C=C\C(=O)O [Compound 804, 2-isopropylamino-4-methyl-5-methoxycarbonylpyrimidine maleate] | – | – | 9.4 ± 1.3% | – | – | 500 to 1000 mg/kg | Number of cells in which neurites appeared/total number of cells ([3]; 24 hours, 0.25 mM): 8/55; Number of cells in which neurites appeared/total number of cells ([3]; 24 hours, 0.5 mM): 7/50; Number of cells in which neurites appeared/total number of cells ([3]; 48 hours, 0.25 mM): 8/50; Number of cells in which neurites appeared/total number of cells ([3]; 48 hours, 0.5 mM): 25/51; Number of cells having neurites with a length at least two times the diameter of each cell/total number of cells ([2]; 0.5 mM): 13.0 ± 2.1%; Number of cells having neurites with a length at least two times the diameter of each cell/total number of cells ([2]; 1 mM): 26.1 ± 6.8%; Number of cells having neurites with a length at least two times the diameter of each cell/total number of cells ([2]; 2 mM): 18.8 ± 3.1%
CNc1cc(C)nc(N2CCC(c3ccccc3)CC2)n1 [Compound 1090] | 5.7 ± 0.6% | 12.2 ± 2.5% | 10.3 ± 0.9% | 3/50 | 21/50 | 500 to 1000 mg/kg | Number of cells in which neurites appeared/total number of cells ([3]; 24 hours, 0.02 mM): 4/50; Number of cells having neurites with a length at least two times the diameter of each cell/total number of cells ([2]; 0.01 mM): 3.7 ± 1.0%
CN1C(=O)Cc2cnc(N3CCN(C(c4ccccc4)c4ccccn4)CC3)nc21 (centres unmarked) [Compound 3192] | – | 9.7 ± 1.1% | 3.7 ± 3.2% | – | – | 500 to 1000 mg/kg | Number of cells in which neurites appeared/total number of cells ([3]; 24 hours, 0.02 mM): 6/50; Number of cells in which neurites appeared/total number of cells ([3]; 48 hours, 0.02 mM): 4/50
